Here are results for 23 molecules from patent publication US20250346585A1 (Alexion Pharmaceuticals, Inc., priority 2022, published 2025).

The structures appear in SMILES notation.

The target in this assay is Human complement C1s enzyme (Homo sapiens (Human), UniProt P09871). Nature of the assay: Human C1s enzyme assay. Format: biochemical. The settings on record: Human C1s enzyme assay of Example 3; read-out: IC50 (Stars). On the procedure: Human complement C1s enzyme (purified from human serum, Complement Technology, Inc.) at 1.16 nM final concentration was incubated with test compound at various concentrations for 5 min at room temperature in 50 mM Tris, 1 M NaCl, pH 7.5. A synthetic substrate Z-L-Lys-SBzl and DTNB (Ellman's reagent) were added to final concentrations of 100 μM each. Absorbance at 405 nm (A405) was recorded at 30 second intervals for 30 min using a microplate spectrophotometer. IC50 values were calculated by nonlinear regression of complement C1s reaction rates as a function of test compound concentration.
Human complement C1s enzyme, sequence (P09871 438-688 limits assumed): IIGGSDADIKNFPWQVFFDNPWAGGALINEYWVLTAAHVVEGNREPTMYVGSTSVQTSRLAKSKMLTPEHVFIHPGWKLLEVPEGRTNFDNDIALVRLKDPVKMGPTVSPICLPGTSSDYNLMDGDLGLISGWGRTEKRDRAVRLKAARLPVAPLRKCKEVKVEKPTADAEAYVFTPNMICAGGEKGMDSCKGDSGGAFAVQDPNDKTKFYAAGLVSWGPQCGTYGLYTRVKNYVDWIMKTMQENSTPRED
Human complement C1s enzyme, sequence (P09871 16-437 partner limits assumed): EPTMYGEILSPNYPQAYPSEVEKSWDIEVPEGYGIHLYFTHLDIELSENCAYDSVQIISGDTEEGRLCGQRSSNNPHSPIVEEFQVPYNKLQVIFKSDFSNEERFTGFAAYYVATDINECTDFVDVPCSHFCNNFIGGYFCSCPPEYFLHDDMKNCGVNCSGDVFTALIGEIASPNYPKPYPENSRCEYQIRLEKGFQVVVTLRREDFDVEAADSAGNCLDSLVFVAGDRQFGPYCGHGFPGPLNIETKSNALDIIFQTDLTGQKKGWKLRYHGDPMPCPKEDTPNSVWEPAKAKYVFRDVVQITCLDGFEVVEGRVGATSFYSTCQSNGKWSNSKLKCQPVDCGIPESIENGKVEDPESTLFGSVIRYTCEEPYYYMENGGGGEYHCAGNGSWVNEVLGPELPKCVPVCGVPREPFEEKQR
As to `Cc1ccc(Oc2ccc(C(=O)NCC(=O)N3[C@H]4C[C@@]4(C)C[C@H]3C(=O)N[C@H](C)c3ccc(C(=N)N)s3)cc2)cc1` [Compound 26, (1S,3S,5S)—N—((R)-1-(5-carbamimidoylthiophen-2-yl)ethyl)-5-methyl-2-((4-(p-tolyloxy)benzoyl)glycyl)-2-azabicyclo[3.1.0]hexane-3-carboxamide], the IC50 was under 100 nM. For the molecule `Cc1cc(C(=O)NCC(=O)N2[C@H]3C[C@@]3(C)C[C@H]2C(=O)N[C@H](C)c2cc(C(=N)N)cs2)ccc1Oc1ccc(F)cc1` [Compound 27, (1S,3S,5S)—N—((R)-1-(4-carbamimidoylthiophen-2-yl)ethyl)-2-((4-(4-fluorophenoxy)-3-methylbenzoyl)glycyl)-5-methyl-2-azabicyclo[3.1.0]hexane-3-carboxamide], the IC50 is under 100 nM.

`Cc1cc(C(=O)NCC(=O)N2[C@H]3C[C@@]3(C)C[C@H]2C(=O)N[C@H](C)c2cc(C(=N)N)cs2)ccc1Oc1ccccc1` [Compound 28, (1S,3S,5S)—N—((R)-1-(4-carbamimidoylthiophen-2-yl)ethyl)-5-methyl-2-((3-methyl-4-phenoxybenzoyl)glycyl)-2-azabicyclo[3.1.0]hexane-3-carboxamide]: the IC50 is under 100 nM. Take `C[C@@H](NC(=O)[C@@H]1C[C@]2(C)C[C@@H]2N1C(=O)CNC(=O)c1ccc2c(c1)-c1ccccc1C2(F)F)c1ccc(C(=N)N)s1` [Compound 29, (1S,3S,5S)—N—((R)-1-(5-carbamimidoylthiophen-2-yl)ethyl)-2-((9,9-difluoro-9H-fluorene-3-carbonyl)glycyl)-5-methyl-2-azabicyclo[3.1.0]hexane-3-carboxamide]: the IC50 was under 100 nM. With `C[C@@H](NC(=O)[C@@H]1C[C@@H](OC(F)F)CN1C(=O)CNC(=O)c1ccc2c(c1)-c1ccccc1C2(F)F)c1ccc(C(=N)N)s1` [Compound 30, (2S,4R)—N—((R)-1-(5-carbamimidoylthiophen-2-yl)ethyl)-1-((9,9-difluoro-9H-fluorene-3-carbonyl)glycyl)-4-(difluoromethoxy)pyrrolidine-2-carboxamide], the IC50 is under 100 nM. The result for `Cc1cc(C(=O)NCC(=O)N2[C@H]3C[C@@]3(C)C[C@H]2C(=O)N[C@H](C)c2ccc(C(=N)N)s2)ccc1Oc1ccccc1` [Compound 31, (1S,3S,5S)—N—((R)-1-(5-carbamimidoylthiophen-2-yl)ethyl)-5-methyl-2-((3-methyl-4-phenoxybenzoyl)glycyl)-2-azabicyclo[3.1.0]hexane-3-carboxamide] reads under 100 nM. As to `Cc1cc(C(=O)NCC(=O)N2C[C@@](F)(CF)C[C@H]2C(=O)N[C@H](C)c2cc(C(=N)N)cs2)ccc1Oc1ccccc1` [Compound 32, (2S,4R)—N—((R)-1-(4-carbamimidoylthiophen-2-yl)ethyl)-4-fluoro-4-(fluoromethyl)-1-((3-methyl-4-phenoxybenzoyl)glycyl)pyrrolidine-2-carboxamide], the IC50 was under 100 nM. Turning to `C[C@@H](NC(=O)[C@@H]1C[C@](F)(CF)CN1C(=O)CNC(=O)c1ccc2c(c1)-c1ccccc1C2(F)F)c1ccc(C(=N)N)s1` [Compound 33, (2S,4R)—N—((R)-1-(5-carbamimidoylthiophen-2-yl)ethyl)-1-((9,9-difluoro-9H-fluorene-3-carbonyl)glycyl)-4-fluoro-4-(fluoromethyl)pyrrolidine-2-carboxamide], the IC50 is under 100 nM. Take `COC[C@@]1(F)C[C@@H](C(=O)N[C@H](C)c2cc(C(=N)N)cs2)N(C(=O)CNC(=O)c2ccc(Oc3ccccc3)c(C)c2)C1` [Compound 34, (2S,4R)—N—((R)-1-(4-carbamimidoylthiophen-2-yl)ethyl)-4-fluoro-4-(methoxymethyl)-1-((3-methyl-4-phenoxybenzoyl)glycyl)pyrrolidine-2-carboxamide]: the half-maximal inhibitory concentration (IC50) is under 100 nM. As to `C[C@@H](NC(=O)[C@@H]1C[C@](F)(CN)CN1C(=O)CNC(=O)c1ccc2c(c1)-c1ccccc1C2(F)F)c1cc(C(=N)N)cs1` [Compound 35, (2S,4S)-4-(aminomethyl)-N—((R)-1-(4-carbamimidoylthiophen-2-yl)ethyl)-1-((9,9-difluoro-9H-fluorene-3-carbonyl)glycyl)-4-fluoropyrrolidine-2-carboxamide], the half-maximal inhibitory concentration (IC50) is under 100 nM. On to `C[C@@H](NC(=O)[C@@H]1C[C@](F)(CN(C)C)CN1C(=O)CNC(=O)c1ccc2c(c1)-c1ccccc1C2(F)F)c1cc(C(=N)N)cs1` [Compound 36, (2S,4S)—N—((R)-1-(4-carbamimidoylthiophen-2-yl)ethyl)-1-((9,9-difluoro-9H-fluorene-3-carbonyl)glycyl)-4-((dimethylamino)methyl)-4-fluoropyrrolidine-2-carboxamide], for which the half-maximal inhibitory concentration (IC50) is under 100 nM.

For `C[C@@H](NC(=O)[C@@H]1C[C@@H](Oc2ccccc2)CN1C(=O)CNC(=O)c1ccc(Oc2ccc(F)cc2)cc1)c1cc(C(=N)N)cs1` [Compound 37, (2S,4R)—N—((R)-1-(4-carbamimidoylthiophen-2-yl)ethyl)-1-((4-(4-fluorophenoxy)benzoyl)glycyl)-4-phenoxypyrrolidine-2-carboxamide], the IC50 was under 100 nM. In the case of `COC[C@@]12C[C@@H]1N(C(=O)CNC(=O)c1ccc(Oc3ccc(F)cc3)cc1)[C@H](C(=O)N[C@H](C)c1ccc(C(=N)N)s1)C2` [Compound 38, (1S,3S,5R)—N—((R)-1-(5-carbamimidoylthiophen-2-yl)ethyl)-2-((4-(4-fluorophenoxy)benzoyl)glycyl)-5-(methoxymethyl)-2-azabicyclo[3.1.0]-hexane-3-carboxamide], the half-maximal inhibitory concentration (IC50) is under 100 nM. Take `CCc1ccc(Oc2ccc(C(=O)NCC(=O)N3C[C@H](OC(F)F)C[C@H]3C(=O)N[C@H](C)c3cc(C(=N)N)cs3)cc2)cc1` [Compound 39, (2S,4R)—N—((R)-1-(4-carbamimidoylthiophen-2-yl)ethyl)-4-(difluoromethoxy)-1-((4-(4-ethylphenoxy)benzoyl)glycyl)pyrrolidine-2-carboxamide]: the IC50 was under 100 nM. With `C[C@@H](NC(=O)[C@@H]1C[C@](F)(CF)CN1C(=O)CNC(=O)c1ccc(Oc2ccc(F)cc2)cc1)c1ccc(C(=N)N)s1` [Compound 40, (2S,4R)—N—((R)-1-(5-carbamimidoylthiophen-2-yl)ethyl)-4-fluoro-4-(fluoromethyl)-1-((4-(4-fluorophenoxy)benzoyl)glycyl)pyrrolidine-2-carboxamide], the IC50 was under 100 nM. Take `C[C@@H](NC(=O)[C@@H]1C[C@]2(CO)C[C@@H]2N1C(=O)CNC(=O)c1ccc(Oc2ccc(F)cc2)cc1)c1ccc(C(=N)N)s1` [Compound 41, (1S,3S,5R)—N—((R)-1-(5-carbamimidoylthiophen-2-yl)ethyl)-2-((4-(4-fluorophenoxy)benzoyl)glycyl)-5-(hydroxymethyl)-2-azabicyclo[3.1.0]hexane-3-carboxamide]: the IC50 is under 100 nM. `C[C@@H](NC(=O)[C@@H]1C[C@]2(CO)C[C@@H]2N1C(=O)CNC(=O)c1ccc(Oc2ccc(F)cc2)cc1)c1cc(C(=N)N)cs1` [Compound 42, (1S,3S,5R)—N—((R)-1-(4-carbamimidoylthiophen-2-yl)ethyl)-2-((4-(4-fluorophenoxy)benzoyl)glycyl)-5-(hydroxymethyl)-2-azabicyclo[3.1.0]hexane-3-carboxamide]: the half-maximal inhibitory concentration (IC50) is under 100 nM. As to `C[C@@H](NC(=O)[C@@H]1C[C@@H](OC(F)F)CN1C(=O)CNC(=O)c1ccc(Oc2ccc(Cl)cc2)cc1)c1cc(C(=N)N)cs1` [Compound 43, (2S,4R)—N—((R)-1-(4-carbamimidoylthiophen-2-yl)ethyl)-1-((4-(4-chlorophenoxy)benzoyl)glycyl)-4-(difluoromethoxy)pyrrolidine-2-carboxamide], the IC50 was under 100 nM. With `COC[C@@]12C[C@@H]1N(C(=O)CNC(=O)c1ccc(Oc3ccc(F)cc3)cc1)[C@H](C(=O)N[C@H](C)c1cc(C(=N)N)cs1)C2` [Compound 44, (1S,3S,5R)—N—((R)-1-(4-carbamimidoylthiophen-2-yl)ethyl)-2-((4-(4-fluorophenoxy)benzoyl)glycyl)-5-(methoxymethyl)-2-azabicyclo[3.1.0]hexane-3-carboxamide], the IC50 was under 100 nM. The result for `C[C@H]1C[C@@H](C(=O)N[C@H](C)c2cc(C(=N)N)cs2)N(C(=O)CNC(=O)c2ccc(Oc3ccc(F)cc3)cc2)C1` [Compound 45, (2S,4S)—N—((R)-1-(4-carbamimidoylthiophen-2-yl)ethyl)-1-((4-(4-fluorophenoxy)benzoyl)glycyl)-4-methylpyrrolidine-2-carboxamide] reads under 100 nM; that for `C[C@H]1C[C@@H](C(=O)N[C@H](C)c2cc(C(=N)N)cs2)N(C(=O)CNC(=O)c2ccc3c(c2)-c2ccccc2C3(F)F)C1` [Compound 46, (2S,4S)—N—((R)-1-(4-carbamimidoylthiophen-2-yl)ethyl)-1-((9,9-difluoro-9H-fluorene-3-carbonyl)glycyl)-4-methylpyrrolidine-2-carboxamide], under 100 nM.

For `CC(C)c1ccc(Oc2ccc(C(=O)NCC(=O)N3C[C@H](OC(F)F)C[C@H]3C(=O)N[C@H](C)c3cc(C(=N)N)cs3)cc2)cc1` [Compound 47, (2S,4R)—N—((R)-1-(4-carbamimidoylthiophen-2-yl)ethyl)-4-(difluoromethoxy)-1-((4-(4-isopropylphenoxy)benzoyl)glycyl)pyrrolidine-2-carboxamide], the IC50 was under 100 nM. On to `N=C(N)c1csc(CNC(=O)[C@@H]2CC3(CN2C(=O)CNC(=O)c2ccc(-c4ccccc4)cn2)OCCO3)c1` [Compound 48, (S)—N-((4-carbamimidoylthiophen-2-yl)methyl)-7-((5-phenylpicolinoyl)glycyl)-1,4-dioxa-7-azaspiro[4.4]nonane-8-carboxamide], for which the IC50 was under 100 nM.

A word on the IC50: it is the midpoint of a concentration-inhibition curve.
